# ChEMBL document CHEMBL1122965, “The pKa of butaclamol and the mode of butaclamol binding to central dopamine receptors” (J Med Chem, 1985)
# Target: Dopamine receptor (Homo sapiens) (UniProt P14416+P35462+P21918+P21917+P21728)
row,pKa,SMILES
1,7.03,CC(C)(C)[C@]1(O)CCN2C[C@@H](c3ccccc3)c3ccccc3[C@@H]2C1
2,9.12,c1ccc([C@H]2CN3CCC[C@H]3c3ccccc32)cc1
